This is an account of results in ChEMBL document CHEMBL5726224, “Aminoester derivatives” (2017).

Sequence of Muscarinic acetylcholine receptor M3 (P20309 whole entry): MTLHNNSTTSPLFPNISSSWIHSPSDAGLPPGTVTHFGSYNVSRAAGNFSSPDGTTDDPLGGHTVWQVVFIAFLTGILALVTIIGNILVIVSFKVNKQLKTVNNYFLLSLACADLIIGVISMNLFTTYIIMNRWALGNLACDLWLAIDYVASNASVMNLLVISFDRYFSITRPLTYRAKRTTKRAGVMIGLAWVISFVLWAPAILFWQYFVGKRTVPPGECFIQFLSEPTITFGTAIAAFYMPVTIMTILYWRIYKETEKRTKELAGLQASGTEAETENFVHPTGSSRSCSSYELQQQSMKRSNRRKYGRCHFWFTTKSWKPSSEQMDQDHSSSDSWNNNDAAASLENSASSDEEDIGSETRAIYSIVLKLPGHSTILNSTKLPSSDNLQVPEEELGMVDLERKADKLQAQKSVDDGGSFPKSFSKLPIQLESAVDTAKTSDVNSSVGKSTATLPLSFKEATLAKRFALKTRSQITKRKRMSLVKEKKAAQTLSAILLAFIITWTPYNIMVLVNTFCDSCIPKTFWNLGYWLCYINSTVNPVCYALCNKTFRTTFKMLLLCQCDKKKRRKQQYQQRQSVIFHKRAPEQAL
Sequence of 3',5'-cyclic-AMP phosphodiesterase 4B (Q07343 whole entry): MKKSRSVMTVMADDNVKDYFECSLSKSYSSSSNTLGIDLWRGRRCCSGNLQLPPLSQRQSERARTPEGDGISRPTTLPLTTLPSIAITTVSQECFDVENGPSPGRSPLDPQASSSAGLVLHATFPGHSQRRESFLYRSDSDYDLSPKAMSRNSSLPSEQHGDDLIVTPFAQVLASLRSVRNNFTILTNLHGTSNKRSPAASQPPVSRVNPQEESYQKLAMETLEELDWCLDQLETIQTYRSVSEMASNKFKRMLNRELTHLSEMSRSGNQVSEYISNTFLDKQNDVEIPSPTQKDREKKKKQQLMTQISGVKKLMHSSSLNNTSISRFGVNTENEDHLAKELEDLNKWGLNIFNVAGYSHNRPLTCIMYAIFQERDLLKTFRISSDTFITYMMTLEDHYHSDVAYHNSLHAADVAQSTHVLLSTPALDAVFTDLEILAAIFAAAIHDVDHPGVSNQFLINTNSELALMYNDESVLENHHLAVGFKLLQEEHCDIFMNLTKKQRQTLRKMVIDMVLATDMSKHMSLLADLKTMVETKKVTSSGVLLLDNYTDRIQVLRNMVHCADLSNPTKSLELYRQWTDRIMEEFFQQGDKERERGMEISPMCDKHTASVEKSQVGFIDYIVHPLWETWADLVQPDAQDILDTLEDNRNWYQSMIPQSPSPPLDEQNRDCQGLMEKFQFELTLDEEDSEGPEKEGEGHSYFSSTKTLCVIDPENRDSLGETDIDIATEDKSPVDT

One assay addresses Muscarinic acetylcholine receptor M3 (Homo sapiens, UniProt P20309). The assay can be described thus: The assay is carried out in 96-well polypropylene plates in a volume of 250 μl. […] The final assay concentration of DMSO is 0.5% (v/v). The plates are sealed and incubated for 2 h at room temperature on an orbital shaker (slow speed). Membranes are harvested onto 96-well unifilter GF/C filter plates pre-treated with 0.5% polyethyleneimine (v/v), using a filter manifold, washed four times with 200 μl of assay buffer. The plates are dried before addition of 50 μl of microscint-0, sealed then read in a Trilux Microbeta scintillation counter. IC50 values are determined from competition curves using a non-linear curve fitting program. Ki values are calculated from IC50 values by the Cheng and Prusoff equation.
On to `COc1ccc([C@H](Cc2c(Cl)c[n+]([O-])cc2Cl)OC(=O)c2ccc(CNC(CO)(C(=O)OC[C@H]3CCN(C)C3)c3ccccc3)s2)cc1OC` (stereo partly specified), for which the IC50 was under 1 nM.
In the case of `COc1ccc([C@H](Cc2c(Cl)c[n+]([O-])cc2Cl)OC(=O)c2ccc(CNC(CO)(C(=O)OC[C@@H]3CCN(C)C3)c3ccccc3)s2)cc1OC` (stereo partly specified), the 50% inhibitory concentration (IC50) is under 1 nM.
On to `COc1ccc([C@H](Cc2c(Cl)c[n+]([O-])cc2Cl)OC(=O)c2ccc(CNC(C(=O)OC[C@H]3CCN(C)C3)c3ccccc3)s2)cc1OC` (stereo partly specified), for which the Ki is 0.59 nM.

Another assay addresses 3',5'-cyclic-AMP phosphodiesterase 4B (Homo sapiens, UniProt Q07343). As to the kind of experiment: HTRF Assay: PDE4B2 activity is detected using the LANCE Ultra cAMP homogeneous time resolved fluorescence resonance energy transfer (TR-FRET) assay from Perkin Elmer. The assay is based on the competition between the europium (Eu) chelate-labeled cAMP tracer and sample cAMP for binding sites on cAMP-specific monoclonal antibodies (mAb) labelled with the ULight¿ dye. The assay is carried out in 384-well low volume plates in a volume of 10 μl. Human recombinant PDE4B2 (80 pM) is incubated for 2 h with 3 nM cAMP in buffer containing 1×HBSS, 5 mM HEPES, 3 mM MgCl2, 0.1% BSA, pH 7.4 with or without test compounds. The enzymatic reactions are efficiently stopped by the addition of 500 μM IBMX present in the combined Stop/Detection buffer containing europium (Eu) chelate-labeled cAMP tracer and cAMP-specific monoclonal antibodies (mAb) labelled with the ULight¿ dye. […] IC50 values are determined from competition curves using a non-linear curve fitting program.
As to `COc1ccc([C@H](Cc2c(Cl)c[n+]([O-])cc2Cl)OC(=O)c2ccc(CNC(C(=O)OCC3CCN(C)CC3)c3cccc(O)c3)s2)cc1OC` (stereo partly specified), the 50% inhibitory concentration (IC50) was under 1 nM.
Same read-out and setting: the result for `COc1ccc([C@H](Cc2c(Cl)c[n+]([O-])cc2Cl)OC(=O)c2ccc(CNC(C)(C(=O)OCC3CCN(C)CC3)c3ccccc3)s2)cc1OC` (stereo partly specified) reads under 1 nM; that for `CCOc1cc(C(Cc2c(Cl)c[n+]([O-])cc2Cl)OC(=O)c2ccc(CNC(C(=O)OCC3CCN(C)CC3)c3ccccc3)s2)ccc1OC` (stereo unspecified), under 1 nM.
On to `COc1ccc(C(Cc2c(Cl)c[n+]([O-])cc2Cl)OC(=O)c2ccc(CNC(C(=O)OCC3CCN(C)CC3)c3ccccc3)s2)cc1OCC1CC1` (stereo unspecified), for which the IC50 is under 1 nM.
On the same count and under the same terms, the result for `COc1ccc([C@H](Cc2c(Cl)c[n+]([O-])cc2Cl)OC(=O)c2ccc(CNC(C(=O)OC[C@H]3CCCCN3C)c3ccccc3)s2)cc1OC` (stereo partly specified) reads under 1 nM.
As for `COc1ccc([C@H](Cc2c(Cl)c[n+]([O-])cc2Cl)OC(=O)c2ccc(CNC(C(=O)OCC3CCN(C)CC3)c3ccccc3F)s2)cc1OC` (stereo partly specified), the concentration for half-maximal inhibition (IC50) was under 1 nM.
Still for that read-out and setting: the result for `COc1ccc([C@H](Cc2c(Cl)c[n+]([O-])cc2Cl)OC(=O)c2ccc(CNC(C(=O)OC[C@H]3CCCN(C)C3)c3ccccc3)s2)cc1OC` (stereo partly specified) reads under 1 nM.
As for `COc1ccc([C@H](Cc2c(Cl)c[n+]([O-])cc2Cl)OC(=O)c2ccc(CNC(CO)(C(=O)OC[C@H]3CCN(C)C3)c3ccccc3)s2)cc1OC` (stereo partly specified), the IC50 was under 1 nM.
